Molecules are shown by their SMILES.

The test has as its system Tankyrase. In words: Cellular inhibition of Tankyrase: Axin2 level in DLD1 cells (Luminex). In kind it is cell-based. The note with it: 24 hours, Axin2 increase, read-out: EC50 [M] TNKS cellular assay. In outline: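 DLD1 colon carcinoma cells treated 24 h with seven-step serial dilutions in triplicate (0.3% DMSO final). Axin2 in cleared lysates captured on anti-Axin2 beads, detected with polyclonal anti-Axin2 plus PE secondary, and quantified by Luminex. EC50 from data normalized to solvent control; IWR-2 (3E-06 M) marks maximal Axin2 increase.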
Consider `COc1ccc(N(C)C(=O)N2CCC(C(=O)c3ccc(F)cc3)CC2)cc1` [Compound A8, 4-(4-fluoro-benzoyl)-piperidine-1-carboxylic acid (4-methoxy-phenyl)-methylamide], for which the EC50 – broadly, the concentration needed to bring the measured effect to its halfway point – is less than 3e-07 M.
As to `CCN(C(=O)N1CCC(C(=O)c2cccc(OC)c2)CC1)c1ccc(OC)cc1` [Compound A28, 4-(3-methoxy-benzoyl)-piperidine-1-carboxylic acid ethyl-(4-methoxy-phenyl)amide], the EC50 is less than 3e-07 M.
As to `O=C(c1ccccc1)C1CCN(C(=O)N2CCc3ccccc32)CC1` [Compound A16, (4-benzoyl-piperidin-1-yl)-(2,3-dihydro-indol-1-yl)-methanone], the concentration for a half-maximal effect (EC50) lay in the range of 3e-06 to 5e-05 M.
To `CCN(C(=O)N1CCC(C(=O)c2ccc(OC)c(C)c2)CC1)c1ccc(OC)cc1` [Compound A24, 4-(4-methoxy-3-methyl-benzoyl)-piperidine-1-carboxylic acid ethyl-(4-methoxy-phenyl)-amide] belongs less than 3e-07 M.
Regarding `COc1ccc(C(=O)C2CCN(C(=O)N3CCc4ccccc43)CC2)cc1` [Compound A18, (2,3-dihydro-indol-1-yl)-[4-(4-methoxy-benzoyl)-piperidin-1-yl]-methanone], the concentration giving a half-maximal response (EC50) was in the range of 3e-07 to 3e-06 M.
Turning to `COc1ccc(N(CCO)C(=O)N2CCC(C(=O)c3ccccc3)CC2)cc1` [Compound A15, 4-benzoyl-piperidine-1-carboxylic acid (2-hydroxy-ethyl)-(4-methoxy-phenyl)amide], the 50% effective concentration (EC50) is 3e-07 to 3e-06 M.
To `COc1ccc(N(C)C(=O)N2CCC(C(=O)c3ccccc3)CC2)cc1` [Compound A4, 4-benzoyl-piperidine-1-carboxylic acid (4-methoxy-phenyl)-methyl-amide] belongs 3e-07 to 3e-06 M.
Take `COc1ccc(N(C)C(=O)N2CCC(C(=O)c3cccc(F)c3)CC2)cc1` [Compound A7, 4-(3-fluoro-benzoyl)-piperidine-1-carboxylic acid (4-methoxy-phenyl)-methylamide]: the EC50 was 3e-07 to 3e-06 M.
Regarding `COc1ccc(N(C)C(=O)N2CCC(C(=O)c3ccc(OC)c(F)c3)CC2)cc1` [Compound A29, 4-(3-fluoro-4-methoxy-benzoyl)-piperidine-1-carboxylic acid (4-methoxy-phenyl)-methyl-amide], the EC50 was less than 3e-07 M.
Regarding `COc1ccc(C(=O)C2CCN(C(=O)N(C)c3ccc(OC)cc3)CC2)cc1` [Compound A6, 4-(4-methoxy-benzoyl)-piperidine-1-carboxylic acid (4-methoxy-phenyl)methyl-amide], the EC50 is less than 3e-07 M.
With `CN(C(=O)N1CCC(C(=O)c2ccc(NS(C)(=O)=O)cc2)CC1)c1ccccc1` [Compound A38, 4-(4-methanesulfonylamino-benzoyl)-piperidine-1-carboxylic acid methyl-phenyl-amide], the EC50 lay within 3e-07 to 3e-06 M.
To `Cc1ccc(N(C)C(=O)N2CCC(C(=O)c3ccccc3)CC2)cc1` [Compound A2, 4-benzoyl-piperidine-1-carboxylic acid methyl-p-tolyl-amide] belongs 3e-07 to 3e-06 M; to `CCOC(=O)CN(C(=O)N1CCC(C(=O)c2ccc(OC)cc2)CC1)c1ccccc1` [Compound A40, {[4-(4-methoxy-benzoyl)-piperidine-1-carbonyl]-phenyl-amino}-acetic acid ethyl ester], less than 3e-07 M; to `CN(C(=O)N1CCC(C(=O)c2ccccc2)CC1)c1ccc(F)cc1` [Compound A13, 4-benzoyl-piperidine-1-carboxylic acid (4-fluoro-phenyl)-methyl-amide], 3e-07 to 3e-06 M.
Regarding `COc1ccc(N(C)C(=O)N2CCC(C(=O)c3cccc(C)c3)CC2)cc1` [Compound A25, 4-(3-methyl-benzoyl)-piperidine-1-carboxylic acid (4-methoxy-phenyl)methyl-amide], the EC50 was less than 3e-07 M.
In the case of `CCN(C(=O)N1CCC(C(=O)c2ccccc2)CC1)c1ccc(OC)cc1` [Compound A14, 4-benzoyl-piperidine-1-carboxylic acid ethyl-(4-methoxy-phenyl)-amide] it was less than 3e-07 M; in that of `CCN(C(=O)N1CCC(C(=O)c2cccc(C)c2)CC1)c1ccc(OC)cc1` [Compound A26, 4-(3-methyl-benzoyl)-piperidine-1-carboxylic acid ethyl-(4-methoxy-phenyl)amide], less than 3e-07 M.
Take `COc1ccc(N(C)C(=O)N2CCC(C(=O)c3ccc(C)cc3)CC2)cc1` [Compound A5, 4-(4-methyl-benzoyl)-piperidine-1-carboxylic acid (4-methoxy-phenyl)-methylamide]: the EC50 was less than 3e-07 M.
As for `Cc1ccc(C(=O)C2CCN(C(=O)N3CCc4ccccc43)CC2)cc1` [Compound A17, (2,3-dihydro-indol-1-yl)-[4-(4-methyl-benzoyl)-piperidin-1-yl]-methanone], the EC50 is 3e-07 to 3e-06 M.
To `COc1ccc(N(C)C(=O)N2CCC(C(=O)c3cccc(OC)c3)CC2)cc1` [Compound A27, 4-(3-methoxy-benzoyl)-piperidine-1-carboxylic acid (4-methoxy-phenyl)methyl-amide] belongs less than 3e-07 M; to `Cc1cccc(N(C)C(=O)N2CCC(C(=O)c3ccccc3)CC2)c1` [Compound A1, 4-benzoyl-piperidine-1-carboxylic acid methyl-m-tolyl-amide], 3e-07 to 3e-06 M.

(Values after patent publication US9770446B2, “Piperidine urea derivatives” (MERCK PATENT GMBH, priority 2013, dated 2017).)
